Experimental data published in patent EP0003008A1 (priority 1977, dated 1979).
pIC50: −log10 of the molar value. “And” between values parts separate entries of the source, which are not always exact repeats. Identical values can stand only once. Like-named read-outs stand apart in the source and are kept apart here.

Columns and labels:
[1] = biological target: cell-free influenza polymerase (Influenza A virus, UniProt P03431); assay: Cell-free influenza polymerase assay; type: biochemical; settings: in diluted urine; assay mixture includes Mn2+; used as standard; read-out: 50% inhibition
[2] = Acid stability test in 0.1 N HCl, thin layer chromatography estimate of decomposition products; type: physicochemical; settings: 100 µg compound applied
Method: The acid stability was investigated by dissolving 5 mg of each compound in 1 ml of 0.1 N HC1 in a test tube. For use as references 0.2 ml of each solution was withdrawn, immediately treated with 0.2 ml of a 10 % aqueous solution of NaHCO3 and frozen. The remaining 0.8 ml of each solution was incubated at 37°C for 2 hours. After incubation, 0.8 ml of a 10 % aqueous solution of NaHCO3 was added to each solution and the solutions were frozen. The incubated compounds and the reference compounds were ly ophilized to dryness and redissolved in distilled H20, 0.2 ml and 1.0 ml respectively, for each reference solution and incubated solution. The solutions were applied to silica gel (Merck PF254, 20x20 cm) and polyethylene imine (Macherey-Nagel PEI, 20x20 cm) thin layer plates. A total of 20 µl of the reference solutions (100 µg compound) and 25 µl of the incubated solutions (100 µg compound) were applied. To each plate was also added, as references, solutions of phosphorous acid (H2HPO3) (5 and 20 µg) and of trisodiumphosphonoformate (5 and 20 µg). (Decomposition of phosphonoformic acid at low pH produces phosphorous acid).
The silica gel plates were prepared in duplicate and eluted with a solution composed of methanol - 10% aq ammonia - trichloroacetic acid - water (50-15-5-3, v/v) and the polyethylene imine plates were eluted with a 1M aq lithium chloride solution. After elution the plates were dried. One of the duplicated silica gel plates was sprayed with 4 % aq . (NH4)2MoO4 and the polyethylene imine plates were sprayed with a solution composed of 60 % HClO4 - 0.1N aq Hcl - 4% aq (NH4)2MoO4 - H2O (5-10-25-60, v/v). The silica gel plates were hriefly dried at 80-90°C and sprayed with 1% SnCl2 in 10% aq RCl. phosphorous acid and phosphonic acid groups appeared as blue apots on the siliea gel plates (System 1) and as white spots on the polyethylene imine plates (System II). The remaining duplicate silica gel plates were exposed to iodine vapor for detection of di- and triesters of phosphonoformic acid. […]

[3] = 10 µmol intraperitoneally, urine from two male mice
[4] = tested on: influenza (WSN Wilson Smith Neurotropic type A); assay: Plaque assay of influenza (WSN) on cell monolayers; type: cell-based, influenza virus (WSN); settings: conc. of test compound 500 μM, 34°C for 4 days, two values given
[5] = incubated in 0.1 N HCl at 37°C for 2 hours

| Structure (SMILES) | Estimated formation of phosphorous acid [2, 5] [µg] | Recovered phosphonoformic acid activity in urine ([3]; Day 1) [µmol phosphonoformic acid] | Recovered phosphonoformic acid activity in urine ([3]; Day 2) [µmol phosphonoformic acid] | Recovered phosphonoformic acid activity in urine ([3]; Day 3) [µmol phosphonoformic acid] | also measured |
| --- | --- | --- | --- | --- | --- |
| O=C(O)P(=O)(O)O [Phosfonoformic acid, phosphonoformic acid] |  |  |  |  | pIC50 [1]: 6.30 |
| NC(=O)P(=O)(O)O [R1=Na R2=Na R4=H R5=H] | 15 |  |  |  | Estimated formation of phosphorous acid ([2]; non-incubated reference solution (figure in parenthesis)): 5 µg |
| O=C(O)P(=O)(O)O [Trisodiumphosphonoformate, reference compound] | > 20 | 1.25 | 0.13 | <0.01 |  |
| CCOP(=O)(OCC)C(=O)N(CC)CC [VIS 228, diethyl diethylcarbamoylphosphonate] |  |  |  |  | Inhibition (%) [4]: 25% and 37% |
| CCN(CC)C(=O)P(=O)([O-])[O-].[Na+].[Na+] [VIS 232, disodium diethylcarbamoylphosphonate] |  | 0.63 | 0.36 | <0.01 |  |
